Test results as given in PMC9025851, “Polyphenolic Compounds from Lespedeza bicolor Protect Neuronal Cells from Oxidative Stress” (Antioxidants, 2022).
Where two headings read alike, the source gives them in different places. One block for each compound: values may come before it.

How the values were obtained:
[1] = DPPH radical-scavenging effect; conditions: 30 min; DPPH• 10^−4 M in MeOH; mean ± SEM, n = 3; read-out: DPPH-Scavenging Effect SC50
Protocol: The 2,2-diphenyl-1-picrylhydrazyl (DPPH^•) radical-scavenging effect of polyphenolic compounds 7–11 was determined as described in [24]. Polyphenolic compounds 7, 8, 9, 10, and 11 were added to DPPH^• solution in MeOH (10^−4 M) at concentrations from 6 to 34 µM. The reacting mixture was kept in the dark for 30 min at room temperature. Then, we measured the absorbance at 517 nm using a Shimadzu UV 1240 spectrophotometer (Shimadzu, Kyoto, Japan). Equation (1) was used to calculate the DPPH^• radical-scavenging effect (%):(1) DPPH^• scavenging effect,%=A0−Ax/A0 where A0 is the absorbance of DPPH^• solution of a blank sample (without polyphenolic compounds); AX is the absorbance of DPPH^• solution in the presence of different concentrations of polyphenolic compounds.
Quercetin was used as a reference compound. All experiments were performed in triplicate. We calculated the half-maximal scavenging concentration (SC50) for polyphenolic compounds by plotting the DPPH^• scavenging effect (%) against the concentrations of polyphenolic compounds. SC50 values are given as the mean value ± SEM.

[2] = Ferric reducing antioxidant power (FRAP) assay; conditions: 4 min, absorbance 595 nm; mean ± SEM, n = 3
Protocol: We performed the FRAP assay as described in [29]. We prepared the FRAP reagent by mixing 2.5 mL of TPTZ (2,4,6-tris(2-pyridyl)-s-triazine) solution (10 mM) in 40 mM HCl and 25 mL of FeCl3 solution (20 mM) in acetate buffer solution (300 mM, pH 3.6). Polyphenolics 7–11 were added to 3 mL of FRAP reagent at concentrations from 6 to 34 µM. The mixture was kept in the dark at room temperature for 4 min. Then, we measured the absorbance at 595 nm using a Shimadzu UV 1240 spectrophotometer. Equation (2) was used to calculate the FRAP values for polyphenolic compounds 7–11:(2) FRAP=CFe/Cx where CFe is the concentration of Fe^2+ (µM) formed in the reaction; CX is the concentration of polyphenolic compounds in the reacting mixture.
The concentration of Fe^2+ (µM) formed in the reaction was determined using the calibration curve obtained for different concentrations of FeSO4·7H2O.

[3] = Cytotoxicity, MTT assay; format: cell-based, murine; conditions: mouse, Neuro-2a neuroblastoma cells, read-out: Cytotoxic activity EC50
Protocol: The murine neuroblastoma cell line Neuro-2a (CCL-131) was purchased from American Type Culture Collection (ATCC®) (Manassas, VA, USA). Cells were cultured in Dulbecco’s Modified Eagle Medium (Biolot, St. Petersburg, Russia). The medium contained 10% fetal bovine serum (Biolot, St. Petersburg, Russia) and 1% penicillin/streptomycin (Biolot, St. Petersburg, Russia). Cells were incubated at 37 °C in a humidified atmosphere containing 5% (v/v) CO2.
Stock solutions of polyphenolic compounds were prepared in DMSO at a concentration of 10 mM. […]
We incubated Neuro-2a cells (1 × 10^4 cells/well) at 37 °C in a CO2 incubator for 24 h until they formed an adherent monolayer. Then, 20 μL of the tested solution was loaded onto the cells and incubated for 24 h. After incubation, the medium containing the polyphenolic test compounds was replaced by 100 μL of fresh medium. Then, we added 10 μL of MTT (3-(4,5-dimethylthiazol-2-yl)-2,5-diphenyltetrazolium bromide) (Sigma-Aldrich, St. Louis, MO, USA) stock solution (5 mg/mL) to each well and incubated the microplate for 4 h. Then, 100 μL of SDS-HCl solution (1 g SDS/10 mL dH2O/17 μL 6 M HCl) was added to each well, followed by incubation for 18 h. We measured the absorbance of the converted dye formazan on a Multiskan FC microplate photometer (Thermo Scientific, Waltham, MA, USA) at a wavelength of 570 nm. We performed all experiments in triplicate and expressed the cytotoxic activity as percent of living cells.

[4] = system: neuronal HT22 cells; set-up: method as in PMID 33397834; conditions: cited from earlier work; for Neuroprotective effect against glutamate-induced neurotoxicity: HT22 cells
[5] = system: PQ-treated Neuro-2a cells; assay: PQ-induced neurotoxicity, cell viability (MTT); format: cell-based, murine; conditions: PQ 1 mM; for Effect on percentage of living cells after treatment with PQ: compounds 0.01–10 μM, 1 h pre-treatment, MTT after 24 h; for Increase in percentage of living cells after treatment with PQ: MTT
Protocol: (§1) After 24 h of adhesion, Neuro-2a cells (1 × 10^4 cells/well) were treated with polyphenolic compounds at concentrations of 0.01–10 μM for 1 h. Subsequently, 1 mM of PQ, 10 μM rotenone or 80 μM of 6-OHDA (Sigma-Aldrich, St. Louis, MO, USA) were added. We used MTT assay to determine the percentage of living cells (cell viability) after 24 h of incubation. Cells incubated without inductors or with inductors were used as positive and negative control, respectively. The results are presented as percentages of the positive control value.

[6] = system: PQ-treated Neuro-2a cells; assay: Mitochondrial membrane potential (TMRM) in PQ-treated cells; format: cell-based, murine; conditions: for Increase in mitochondrial membrane potential: compound 10 µM, PQ-treated Neuro-2a, TMRM
Protocol: The cells were incubated for 1 h in a 96-well plate (1 × 10^4 cells/well) with polyphenolic compounds (1 and 10 µM). Then, PQ (500 µM) was added, and the cell suspension was incubated for 1 h. Cells incubated without PQ and compounds were used as positive control, and cells with PQ alone were used as negative control. We added the tetramethylrhodamine methyl (TMRM) (Sigma-Aldrich, St. Louis, MO, USA) solution (500 nM) to each well, and incubated cells for 30 min at 37 °C. After the incubation, we measured the intensity of fluorescence with a PHERAstar FSplate reader (BMG Labtech, Ortenberg, Germany) at λex = 540 nm and λem = 590 nm. We processed the data using MARS Data Analysis v3.01R2 (BMG Labtech, Ortenberg, Germany) and presented results as percentages of the positive control value.

[7] = set-up: method as in PMID 31004693; conditions: 30 min; mean ± SEM, n = 3; previously published; read-out: DPPH-Scavenging Effect SC50; cited from earlier work
[8] = set-up: method as in PMID 31004693; conditions: mean ± SEM, n = 3; previously published; cited from earlier work
[9] = system: 6-OHDA-treated Neuro-2a cells; assay: 6-OHDA-induced neurotoxicity, cell viability (MTT); format: cell-based, murine; conditions: 6-OHDA 80 µM, p < 0.05
Protocol: as §1

[10] = system: 6-OHDA-treated Neuro-2a cells; assay: ROS level in 6-OHDA-treated cells (H2DCF-DA); format: cell-based, murine; conditions: 6-OHDA 80 µM; for Effect on ROS levels in 6-OHDA-treated cells: 1 h, H2DCF-DA
Protocol: After 24 h of adhesion, Neuro-2a cells (1 × 10^4 cells/well) were incubated with compounds (0.01–10 µM) for 1 h. Then, we added rotenone (10 μM), 6-OHDA (80 μM), or PQ (1 mM) to each well and incubated cells for 1 h, 1 h, or 3 h, respectively. To evaluate the level of intracellular ROS, we added 20 µL of 2,7-dichlorodihydrofluorescein diacetate solution ([…], H2DCF-DA, Molecular Probes, Eugene, OR, USA) to each well, so that the final concentration was 10 µM, and incubated the microplate at 37 °C for an additional 30 min. Quercetin was used as a reference compound.

[11] = system: MAO-B; set-up: method as in PMID 27575476, PMID 32087226; conditions: cited from earlier work
[12] = system: MAO-A; set-up: method as in PMID 27575476, PMID 32087226; conditions: cited from earlier work

- EC50 [1]: 19.4 ± 2.2 µM
Compound: CC(C)=CCC/C(C)=C/Cc1c(O)c(O)cc(C(=O)C(=O)c2cc(CC=C(C)C)c(O)cc2O)c1O [Compound 11, 5′-isoprenylbicoloketone]
- FRAP [2]: 1.45 ± 0.08 mol (Fe^2+)/mol (polyphenolic compound X)
- EC50 at 24 h [3]: 87 µM

- EC50 [1]: 8.9 ± 0.2 µM
Compound: O=c1c(O)c(-c2ccc(O)c(O)c2)oc2cc(O)cc(O)c12 [Quercetin, reference compound]
- FRAP [2]: 5.11 ± 0.31 mol (Fe^2+)/mol (polyphenolic compound X)

Compound: COc1c(CC=C(C)C)c(O)cc2c1C1Oc3c(ccc(O)c3CC=C(C)C)C1CO2 (centres unmarked) [1-methoxyerythrabyssin II]
- Neuroprotective effect against glutamate-induced neurotoxicity [4]: significant neuroprotective effects

Compound: CC(C)=CCC/C(C)=C/Cc1c(O)c(O)cc(C(=O)C(=O)c2ccc(O)cc2O)c1O [Compound 5, bicoloketone]
- EC50 at 24 h [3]: 100 µM
- Effect on percentage of living cells after treatment with PQ [5]: significantly increased
- Increase in percentage of living cells after treatment with PQ ([5]; compound 1 and 10 μM): 8–10%
- Increase in mitochondrial membrane potential [6]: 23%
- EC50 [7]: 26.1 ± 3 µM
- FRAP [8]: 0.86 ± 0.04 mol (Fe^2+)/mol (polyphenolic compound X)

Compound: COc1cc(O)cc2c1C1Oc3c(ccc(O)c3CC=C(C)C)C1CO2 (centres unmarked) [1-methoxylespeflorin G11]
- Neuroprotective effect against glutamate-induced neurotoxicity [4]: significant neuroprotective effects

Compound: 2-geranylbicolosin A
- Neuroprotective effect against glutamate-induced neurotoxicity [4]: significant neuroprotective effects

- EC50 [1]: 25.7 ± 3.4 µM
Compound: CC(C)=CCC/C(C)=C/Cc1c(O)c(O)cc2c1oc1c3ccc(O)cc3oc(=O)c21 [Compound 7, lespedezol A6]
- FRAP [2]: 1.83 ± 0.16 mol (Fe^2+)/mol (polyphenolic compound X)
- EC50 at 24 h [3]: > 100 µM

Compound: CC(C)=CCC[C@]1(C)C=Cc2c(c(O)cc3c2O[C@H]2c4ccc(O)cc4OC[C@@H]32)O1 [Compound 3, 6aR,11aR,3′R-6a,11a-dihydrolespedezol A3]
- EC50 at 24 h [3]: 44 µM
- Effect on percentage of living cells after treatment with PQ [5]: significantly increased
- Increase in percentage of living cells after treatment with PQ ([5]; compound 10 μM): 8%
- Increase in mitochondrial membrane potential [6]: 16%
- Increase in percentage of living cells after 6-OHDA treatment versus 6-OHDA-treated cells [9]: 12.9%
- Decrease of ROS level compared to 6-OHDA-treated cells [10]: 4.5 times
- Effect on ROS levels in 6-OHDA-treated cells [10]: significantly decreased
- EC50 [7]: 23.7 ± 2.1 µM
- FRAP [8]: 1.60 ± 0.08 mol (Fe^2+)/mol (polyphenolic compound X)

Compound: COc1ccc2c(c1O)OC[C@H]1c3cc4c(cc3O[C@@H]21)OCO4 [(–)-4-hydroxy-3-methoxy-8,9-methylenedioxypterocarpan]
- Inhibition of MAO-B [11]: effectively inhibit
- Inhibition of MAO-A [12]: effectively inhibit

Compound: COc1cc2c(cc1O)OC1c3c(OC)cc(O)c(C/C=C(\C)CCC=C(C)C)c3OCC21 (centres unmarked) [8-methoxybicolosin C]
- Neuroprotective effect against glutamate-induced neurotoxicity [4]: significant neuroprotective effects

Compound: 2-geranyl-1-methoxylespeflorin G11
- Neuroprotective effect against glutamate-induced neurotoxicity [4]: significant neuroprotective effects
- Apoptosis in HT22 cells ([4]; by inhibiting intracellular ROS generation and mitochondrial dysfunction): attenuate

Compound: C[n+]1ccc(-c2cc[n+](C)cc2)cc1 [PQ, paraquat, reference compound]
- Decrease in TMRM fluorescence ([6]; 1 h exposure of Neuro-2a cells with PQ alone): 23%

- EC50 [1]: 30.5 ± 2.1 µM
Compound: O=C1O[C@H]([C@@H](O)CO)C(O)=C1O [Ascorbic acid, reference compound]
- FRAP [2]: 3.43 ± 0.33 mol (Fe^2+)/mol (polyphenolic compound X)

Compound: CC(C)=CCC[C@@]1(C)C=Cc2c(c(O)cc3c2O[C@H]2c4ccc(O)cc4OC[C@@H]32)O1 [Compound 2, (6aR,11aR,3′S)-6a,11a-dihydrolespedezol A3]
- EC50 at 24 h [3]: 75 µM
- Effect on percentage of living cells after treatment with PQ [5]: did not exhibit any effect
- Increase in percentage of living cells after 6-OHDA treatment versus 6-OHDA-treated cells [9]: 8.7%
- Decrease of ROS level compared to 6-OHDA-treated cells [10]: 4.5 times
- Effect on ROS levels in 6-OHDA-treated cells [10]: significantly decreased
- EC50 [7]: 25 ± 2.2 µM
- FRAP [8]: 1.31 ± 0.02 mol (Fe^2+)/mol (polyphenolic compound X)

- EC50 [1]: 26.7 ± 3.8 µM
Compound: CC(C)=CCC/C(C)=C/Cc1c(O)c(C(=O)c2c(-c3ccc(O)cc3O)oc3c(C/C=C(\C)CCC=C(C)C)c(O)c(O)cc23)cc2c1OC1c3cc(CC=C(C)C)c(O)cc3OCC21 (centres unmarked) [Compound 8, lespebicolin B]
- FRAP [2]: 1.95 ± 0.19 mol (Fe^2+)/mol (polyphenolic compound X)
- EC50 at 24 h [3]: > 100 µM
- Effect on percentage of living cells after treatment with PQ [5]: significantly increased
- Increase in percentage of living cells after treatment with PQ ([5]; compound 1 and 10 μM): 8–10%

Compound: CC(C)=CCC/C(C)=C/Cc1c(O)c(O)cc2c1O[C@H]1c3ccc(O)cc3OC[C@@H]21 [Compound 1, (6aR,11aR)-6a,11a-dihydrolespedezol A2]
- EC50 at 24 h [3]: 72 µM
- Effect on percentage of living cells after treatment with PQ [5]: did not exhibit any effect
- EC50 [7]: 24.3 ± 3.7 µM
- FRAP [8]: 1.78 ± 0.16 mol (Fe^2+)/mol (polyphenolic compound X)

Compound: COc1c(CC=C(C)C)c(O)cc2c1[C@@H]1Oc3c(cc(C)c(O)c3CC=C(C)C)[C@@H]1CO2 [bicolosin A]
- Neuroprotective effect against glutamate-induced neurotoxicity [4]: significant neuroprotective effects

Compound: medicarpin
- Inhibition of MAO-B [11]: selectively inhibited
- Inhibition of MAO-A [12]: did not effectively inhibit
